From PubChem BioAssay AID1963833 (Molecular Pharmacology Branch, DTP, NCI, 2024)

Test system: 883617-216-R-J1-PDC complex spheroid viability
Assay: Anticancer human tumor 883617-216-R-J1-PDC patient-derived bladder carcinoma cell line growth inhibition [POLQ]
Conditions: for IC50: curve of first compound; for viability, T/C: stronger effect = lower value
Method in brief: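 Patient-derived tumour cells were co-cultured with HUVEC and mesenchymal stem cells as multicellular spheroids at 37 °C. They were treated with POLQ inhibitors (novobiocin, ART-558, RP6685) alone or combined with other agents. Top concentrations were at or near clinical Cmax (otherwise 10 microM; SN-38 at 1 microM), decreasing in half-log steps.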

[1] = second compound 0.0316 µM, first compound 0.0316 µM
[2] = second compound 0.0316 µM, first compound 0.1 µM
[3] = second compound 0.0316 µM, first compound 0.316 µM
[4] = second compound 0.0316 µM, first compound 1 µM
[5] = second compound 0.0316 µM, first compound 3.16 µM
[6] = second compound 0.0316 µM, first compound 10 µM
[7] = second compound 0.1 µM, first compound 0.0316 µM
[8] = second compound 0.1 µM, first compound 0.1 µM
[9] = second compound 0.1 µM, first compound 0.316 µM
[10] = second compound 0.1 µM, first compound 1 µM
[11] = second compound 0.1 µM, first compound 3.16 µM
[12] = second compound 0.1 µM, first compound 10 µM
[13] = second compound 0.316 µM, first compound 0.0316 µM
[14] = second compound 0.316 µM, first compound 0.1 µM
[15] = second compound 0.316 µM, first compound 0.316 µM
[16] = second compound 0.316 µM, first compound 1 µM
[17] = second compound 0.316 µM, first compound 3.16 µM
[18] = second compound 0.316 µM, first compound 10 µM
[19] = second compound 1 µM, first compound 0.0316 µM
[20] = second compound 1 µM, first compound 0.1 µM
[21] = second compound 1 µM, first compound 0.316 µM
[22] = second compound 1 µM, first compound 1 µM
[23] = second compound 1 µM, first compound 3.16 µM
[24] = second compound 1 µM, first compound 10 µM
[25] = second compound 3.16 µM, first compound 0.0316 µM
[26] = second compound 3.16 µM, first compound 0.1 µM
[27] = second compound 3.16 µM, first compound 0.316 µM
[28] = second compound 3.16 µM, first compound 1 µM
[29] = second compound 3.16 µM, first compound 3.16 µM
[30] = second compound 3.16 µM, first compound 10 µM
[31] = second compound 10 µM, first compound 0.0316 µM
[32] = second compound 10 µM, first compound 0.1 µM
[33] = second compound 10 µM, first compound 0.316 µM
[34] = second compound 10 µM, first compound 1 µM
[35] = second compound 10 µM, first compound 3.16 µM
[36] = second compound 10 µM, first compound 10 µM
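Further: spheroids exposed to compounds for seven days before readout.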
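Wherever viability, T/C is given: 100% = DMSO vehicle control viability.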

CC1COCCN1c1cc(C2(S(C)(=N)=O)CC2)nc(-c2ccnc3[nH]ccc23)n1 (stereo unspecified) + Nc1ccc(C#CCN(C(=O)Cc2ncc(C(F)(F)F)cc2C(F)(F)F)c2ccc(F)cc2)nn1
IC50 (second compound 0.0316 µM): 5.98 µM
IC50 (second compound 0.1 µM): 5.7 µM
IC50 (second compound 0.316 µM): 4.48 µM
IC50 (second compound 1 µM): 4.27 µM
IC50 (second compound 3.16 µM): 6.2 µM
IC50 (second compound 10 µM): 3.53 µM
viability, T/C [1]: 110%
viability, T/C [2]: 108%
viability, T/C [3]: 89.2%
viability, T/C [4]: 76.8%
viability, T/C [5]: 59.7%
viability, T/C [6]: 42.5%
viability, T/C [7]: 82.7%
viability, T/C [8]: 101%
viability, T/C [9]: 89.8%
viability, T/C [10]: 76.4%
viability, T/C [11]: 62%
viability, T/C [12]: 39.6%
viability, T/C [13]: 96.7%
viability, T/C [14]: 111%
viability, T/C [15]: 93.1%
viability, T/C [16]: 73.4%
viability, T/C [17]: 56.7%
viability, T/C [18]: 40.2%
viability, T/C [19]: 99.5%
viability, T/C [20]: 90.3%
viability, T/C [21]: 87.5%
viability, T/C [22]: 65.4%
viability, T/C [23]: 56.6%
viability, T/C [24]: 37.4%
viability, T/C [25]: 114%
viability, T/C [26]: 93.1%
viability, T/C [27]: 97.6%
viability, T/C [28]: 82.3%
viability, T/C [29]: 63.8%
viability, T/C [30]: 39.4%
viability, T/C [31]: 98.1%
viability, T/C [32]: 105%
viability, T/C [33]: 102%
viability, T/C [34]: 83.7%
viability, T/C [35]: 52%
viability, T/C [36]: 37.5%

CCc1cc2c(N3CCc4c(cc(Cn5ccnc5)cc4-c4cn(C)nc4C(F)(F)F)C3=O)ccnc2c(OC)n1 + Nc1ccc(C#CCN(C(=O)Cc2ncc(C(F)(F)F)cc2C(F)(F)F)c2ccc(F)cc2)nn1
IC50 (second compound 0.0316 µM): 9.57 µM
IC50 (second compound 0.1 µM): 9.93 µM
IC50 (second compound 0.316 µM): > 10 µM
IC50 (second compound 1 µM): > 10 µM
IC50 (second compound 3.16 µM): > 10 µM
IC50 (second compound 10 µM): > 10 µM
viability, T/C [1]: 109%
viability, T/C [2]: 97.5%
viability, T/C [3]: 91.4%
viability, T/C [4]: 104%
viability, T/C [5]: 80.4%
viability, T/C [6]: 48.8%
viability, T/C [7]: 91.1%
viability, T/C [8]: 109%
viability, T/C [9]: 103%
viability, T/C [10]: 105%
viability, T/C [11]: 86%
viability, T/C [12]: 49.8%
viability, T/C [13]: 98.8%
viability, T/C [14]: 107%
viability, T/C [15]: 102%
viability, T/C [16]: 91.1%
viability, T/C [17]: 84.8%
viability, T/C [18]: 59%
viability, T/C [19]: 95.6%
viability, T/C [20]: 104%
viability, T/C [21]: 97.9%
viability, T/C [22]: 94.9%
viability, T/C [23]: 88.9%
viability, T/C [24]: 61%
viability, T/C [25]: 109%
viability, T/C [26]: 97.7%
viability, T/C [27]: 110%
viability, T/C [28]: 102%
viability, T/C [29]: 82.3%
viability, T/C [30]: 69.6%
viability, T/C [31]: 105%
viability, T/C [32]: 99.6%
viability, T/C [33]: 107%
viability, T/C [34]: 108%
viability, T/C [35]: 82.9%
viability, T/C [36]: 57.8%

Cn1ncnc1[C@H]1c2n[nH]c(=O)c3cc(F)cc(c23)N[C@@H]1c1ccc(F)cc1 + Nc1ccc(C#CCN(C(=O)Cc2ncc(C(F)(F)F)cc2C(F)(F)F)c2ccc(F)cc2)nn1
IC50 (second compound 0.0316 µM): > 0.1 µM
IC50 (second compound 0.1 µM): > 0.1 µM
IC50 (second compound 0.316 µM): > 0.1 µM
IC50 (second compound 1 µM): > 0.1 µM
IC50 (second compound 3.16 µM): > 0.1 µM
IC50 (second compound 10 µM): > 0.1 µM
viability, T/C (second compound 0.0316 µM, first compound 0.000316 µM): 87.9%
viability, T/C (second compound 0.0316 µM, first compound 0.001 µM): 94.4%
viability, T/C (second compound 0.0316 µM, first compound 0.00316 µM): 99.1%
viability, T/C (second compound 0.0316 µM, first compound 0.01 µM): 82.4%
viability, T/C [1]: 72%
viability, T/C [2]: 78.9%
viability, T/C (second compound 0.1 µM, first compound 0.000316 µM): 93.8%
viability, T/C (second compound 0.1 µM, first compound 0.001 µM): 97.5%
viability, T/C (second compound 0.1 µM, first compound 0.00316 µM): 97.7%
viability, T/C (second compound 0.1 µM, first compound 0.01 µM): 79.7%
viability, T/C [7]: 85.4%
viability, T/C [8]: 80.7%
viability, T/C (second compound 0.316 µM, first compound 0.000316 µM): 82.9%
viability, T/C (second compound 0.316 µM, first compound 0.001 µM): 111%
viability, T/C (second compound 0.316 µM, first compound 0.00316 µM): 91.9%
viability, T/C (second compound 0.316 µM, first compound 0.01 µM): 87.9%
viability, T/C [13]: 83%
viability, T/C [14]: 77.5%
viability, T/C (second compound 1 µM, first compound 0.000316 µM): 91.9%
viability, T/C (second compound 1 µM, first compound 0.001 µM): 94.4%
viability, T/C (second compound 1 µM, first compound 0.00316 µM): 104%
viability, T/C (second compound 1 µM, first compound 0.01 µM): 93.1%
viability, T/C [19]: 84.5%
viability, T/C [20]: 81.8%
viability, T/C (second compound 3.16 µM, first compound 0.000316 µM): 101%
viability, T/C (second compound 3.16 µM, first compound 0.001 µM): 112%
viability, T/C (second compound 3.16 µM, first compound 0.00316 µM): 90.2%
viability, T/C (second compound 3.16 µM, first compound 0.01 µM): 109%
viability, T/C [25]: 86%
viability, T/C [26]: 67.8%
viability, T/C (second compound 10 µM, first compound 0.000316 µM): 100%
viability, T/C (second compound 10 µM, first compound 0.001 µM): 102%
viability, T/C (second compound 10 µM, first compound 0.00316 µM): 102%
viability, T/C (second compound 10 µM, first compound 0.01 µM): 95.8%
viability, T/C [31]: 118%
viability, T/C [32]: 92.2%
